From US11572399B2, “Long-acting GIP peptide analogues” (University of Copenhagen, priority 2017, dated 2023)
Values joined by “and” are separate entries in the source; they are usually repeats but may differ in a detail not shown here. Equal values may be shown once. Read-outs that look alike come from different tables or passages of the source. Peptide text beside a SMILES is read from it. * marks the point of attachment. C16 diacid = O=C(O)CCCCCCCCCCCCCCC(=O)*; Stearoyl = CCCCCCCCCCCCCCCCCC(=O)*

Experiments:
human GIP receptor [1] = molecular target: T1, human GIP receptor (Homo sapiens, UniProt P48546); assay: cAMP accumulation assay, antagonism of a GIP-mediated cAMP response (50-80% of max); format: cell-based; details: for Fold change of IC50 versus GIP(5-30)NH2: fold change of IC50 from GIP(5-30)NH2
T1 construct: host or cells: COS-7, transient transfection (calcium phosphate), cDNA in pCMV-Script
T1 sequence (P48546 22-466): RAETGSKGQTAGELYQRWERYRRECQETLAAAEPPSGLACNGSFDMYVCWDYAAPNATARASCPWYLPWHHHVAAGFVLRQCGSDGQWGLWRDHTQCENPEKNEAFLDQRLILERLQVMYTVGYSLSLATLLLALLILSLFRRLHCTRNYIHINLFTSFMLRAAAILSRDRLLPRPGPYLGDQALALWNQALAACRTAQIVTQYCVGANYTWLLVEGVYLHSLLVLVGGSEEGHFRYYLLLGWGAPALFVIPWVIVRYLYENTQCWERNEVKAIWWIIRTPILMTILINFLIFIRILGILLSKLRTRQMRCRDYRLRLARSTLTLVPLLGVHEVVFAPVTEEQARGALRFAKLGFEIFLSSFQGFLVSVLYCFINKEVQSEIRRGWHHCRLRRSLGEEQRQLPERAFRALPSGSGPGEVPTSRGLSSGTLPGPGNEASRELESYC
Method: The day after, the cells were washed twice with Hepes buffered saline (HBS) buffer and incubated with HBS and 1 mM 3-isobutyl-1-methylxanthine (IBMX) for 30 min at 37° C. […] The HitHunter™ cAMP XS assay (DiscoveRx) was carried out according to the manufacturer's instructions.

human GIP receptor [2] = molecular target: T1, human GIP receptor; assay: cAMP accumulation assay, agonism (ligand alone); format: cell-based; details: Table 1; for Emax: COS-7, intrinsic cAMP activity
human GIP receptor [3] = molecular target: T1, human GIP receptor; assay: 125I-human GIP competition binding assay, in the presence and absence of 2% HSA; details: for Fold change HSA (2%)/Casein (0.1%): IC50 (plus HSA)/IC50 (minus HSA); for Binding (+/−HSA) Fold: fold change +HSA/−HSA; for Fold change in affinity, IC50 (plus HSA)/IC50 (minus HSA): presence vs absence of 2% HSA, proxy for albumin binding;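 as to all read-outs here: nonspecific binding taken as radioligand bound to untransfected cells, IC50 obtained from nonlinear regression fits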
Method: Transient transfection of the COS-7 cells for cAMP accumulation and competition binding was performed using the calcium phosphate precipitation method with the addition of chloroquine^46-47.
Transient transfected COS-7 cells expressing the human GIP receptor were seeded in clear 96-well plates the day after transfection using a number of cells/well that obtained 5-10% specific binding of the added radioactive ligand. The following day, cells were assayed by competition binding for 3 h at 4° C. using 15-40 pM 125 I-human GIP as well as increasing concentrations unlabeled ligand in 50 mM Hepes buffer (pH 7.2) in the presence and absence of 2% HSA. After incubation, the cells were washed twice in ice-cold binding buffer (+/−2% HSA) and lysed using 200 mM NaOH with 1% SDS for 30 min. Nonspecific binding was determined as the binding of radioactive ligand to untransfected cells.
IC50, EC50, and Ki values were determined by nonlinear regression. […] Ki values were based on the formula for one class of binding sites in homologous competition binding studies and the Cheng Prussoffs formula, respectively (DeBlasi et al., 1989). To determine the HSA binding potential, the fold change in affinity (as determined by IC50) was calculated as IC50 (plus HSA)/IC50 (minus HSA).

[4] = transiently transfected COS-7 cells, Table 1 and text, read-out: cAMP antagonism nM (IC50, antagonistic potency)
[5] = given as log EC50 (negative sign), read-out: cAMP agonism EC50 (log) (converted)
[6] = heterologous competition binding, transiently transfected COS-7 cells expressing the human GIP receptor, read-out: Binding
[7] = COS-7 cells, read-out: cAMP agonism nM (EC50)

| SMILES | Fold change of IC50 versus GIP(5-30)NH2 (human GIP receptor [1]) | IC50 (human GIP receptor [1]; [4]) [nM] | Emax (human GIP receptor [2]; COS-7 cells) [%] | EC50 (human GIP receptor [2]; [5]) | Fold change HSA (2%)/Casein (0.1%) (human GIP receptor [3]) | Binding (+/−HSA) Fold (human GIP receptor [3]) | IC50 (human GIP receptor [3]; [6]) [nM] | Ability to antagonize the GIP-mediated cAMP response (in words) (human GIP receptor [1]) | EC50 (human GIP receptor [2]; [7]) [nM] | Fold change in affinity, IC50 (plus HSA)/IC50 (minus HSA) (human GIP receptor [3]) [fold] | Ki (human GIP receptor [3]; presence of 2% HSA) [nM] | cAMP - antagonisme fold (paired) (human GIP receptor [1]; fold vs GIP(3-30)NH2, Table 3b) [fold] | IC50 (human GIP receptor [3]; 0.1% casein, no HSA, Table 3b, read-out: Binding logIC50 0.1% casein (converted)) [nM] | IC50 (human GIP receptor [3]; Table 3b, initial data, read-out: Binding IC50) [nM] | Binding fold (paired) (human GIP receptor [3]; fold decrease in affinity compared to GIP(3-30)NH2, Table 3b) [fold] | IC50 (human GIP receptor [1]; antagonism of GIP-mediated cAMP response, COS-7 cells, read-out: cAMP accumulation IC50) [nM] |
| --- | --- | --- | --- | --- | --- | --- | --- | --- | --- | --- | --- | --- | --- | --- | --- | --- |
| CC[C@H](C)[C@H](NC(=O)[C@H](CO)NC(=O)[C@H](Cc1ccc(O)cc1)NC(=O)[C@H](CC(=O)O)NC(=O)[C@H](CO)NC(=O)[C@@H](NC(=O)[C@H](Cc1ccccc1)NC(=O)[C@@H](N)[C@@H](C)O)[C@@H](C)CC)C(=O)N[C@@H](C)C(=O)N[C@@H](CCSC)C(=O)N[C@@H](CC(=O)O)C(=O)N[C@@H](CCCCN)C(=O)N[C@H](C(=O)N[C@@H](Cc1c[nH]cn1)C(=O)N[C@@H](CCC(N)=O)C(=O)N[C@@H](CCC(N)=O)C(=O)N[C@@H](CC(=O)O)C(=O)N[C@@H](Cc1ccccc1)C(=O)N[C@H](C(=O)N[C@@H](CC(N)=O)C(=O)N[C@@H](Cc1c[nH]c2ccccc12)C(=O)N[C@@H](CC(C)C)C(=O)N[C@@H](CCCCNC(=O)CCCCCCCCCCCCCCC(=O)O)C(=O)N[C@@H](C)C(=O)N[C@@H](CCC(N)=O)C(=O)N[C@@H](CCCCN)C(N)=O)C(C)C)[C@@H](C)CC [AT187, [hGIP(5-30)NH2[L27K]-C16diacid/27]] (H-TFISDYSIAMDKIHQQDFVNWLK(C16 diacid)AQK-NH2; N-terminus assumed) | 67.6 | 2380 | 25 | 1000 nM and 2510 nM | 4.7 | 18.2 | 26500 |  |  |  |  |  |  |  |  |  |
| CC[C@H](C)[C@H](NC(=O)[C@H](CO)NC(=O)[C@H](Cc1ccc(O)cc1)NC(=O)[C@H](CC(=O)O)NC(=O)[C@H](CO)NC(=O)[C@@H](NC(=O)[C@H](Cc1ccccc1)NC(=O)[C@@H](N)[C@@H](C)O)[C@@H](C)CC)C(=O)N[C@@H](C)C(=O)N[C@@H](CCSC)C(=O)N[C@@H](CC(=O)O)C(=O)N[C@@H](CCCCN)C(=O)N[C@H](C(=O)N[C@@H](Cc1c[nH]cn1)C(=O)N[C@@H](CCC(N)=O)C(=O)N[C@@H](CCC(N)=O)C(=O)N[C@@H](CCCCNC(=O)CCCCCCCCCCCCCCC(=O)O)C(=O)N[C@@H](Cc1ccccc1)C(=O)N[C@H](C(=O)N[C@@H](CC(N)=O)C(=O)N[C@@H](Cc1c[nH]c2ccccc12)C(=O)N[C@@H](CC(C)C)C(=O)N[C@@H](CC(C)C)C(=O)N[C@@H](C)C(=O)N[C@@H](CCC(N)=O)C(=O)N[C@@H](CCCCN)C(N)=O)C(C)C)[C@@H](C)CC [AT181, [hGIP(5-30)NH2[D21K]-C16diacid/21]] (H-TFISDYSIAMDKIHQQK(C16 diacid)FVNWLLAQK-NH2; N-terminus assumed) | 0.5 | 16 | 9 |  | 5.2 | 3.6 | 48 | highest antagonistic potencies | 2 | 5.2 |  |  |  |  |  |  |
| CC[C@H](C)[C@H](NC(=O)[C@H](CO)NC(=O)[C@H](Cc1ccc(O)cc1)NC(=O)[C@H](CC(=O)O)NC(=O)[C@H](CO)NC(=O)[C@@H](NC(=O)[C@H](Cc1ccccc1)NC(=O)[C@@H](N)[C@@H](C)O)[C@@H](C)CC)C(=O)N[C@@H](C)C(=O)N[C@@H](CCSC)C(=O)N[C@@H](CC(=O)O)C(=O)N[C@@H](CCCCN)C(=O)N[C@H](C(=O)N[C@@H](Cc1c[nH]cn1)C(=O)N[C@@H](CCCCNC(=O)CCCCCCCCCCCCCCC(=O)O)C(=O)N[C@@H](CCC(N)=O)C(=O)N[C@@H](CC(=O)O)C(=O)N[C@@H](Cc1ccccc1)C(=O)N[C@H](C(=O)N[C@@H](CC(N)=O)C(=O)N[C@@H](Cc1c[nH]c2ccccc12)C(=O)N[C@@H](CC(C)C)C(=O)N[C@@H](CC(C)C)C(=O)N[C@@H](C)C(=O)N[C@@H](CCC(N)=O)C(=O)N[C@@H](CCCCN)C(N)=O)C(C)C)[C@@H](C)CC [AT179, [hGIP(5-30)NH2[Q19K]-C16diacid/19]] (H-TFISDYSIAMDKIHK(C16 diacid)QDFVNWLLAQK-NH2; N-terminus assumed) | 2.1 | 89 | 32 | 100 nM | 3.6 | 6.3 |  |  |  |  | 2380 |  |  |  |  |  |
| CC[C@H](C)[C@H](NC(=O)[C@H](CO)NC(=O)[C@H](Cc1ccc(O)cc1)NC(=O)[C@H](CC(=O)O)NC(=O)[C@H](CO)NC(=O)[C@@H](NC(=O)[C@H](Cc1ccccc1)NC(=O)[C@@H](N)[C@@H](C)O)[C@@H](C)CC)C(=O)N[C@@H](C)C(=O)N[C@@H](CCSC)C(=O)N[C@@H](CC(=O)O)C(=O)N[C@@H](CCCCN)C(=O)N[C@H](C(=O)N[C@@H](Cc1c[nH]cn1)C(=O)N[C@@H](CCC(N)=O)C(=O)N[C@@H](CCCCNC(=O)CCCCCCCCCCCCCCC(=O)O)C(=O)N[C@@H](CC(=O)O)C(=O)N[C@@H](Cc1ccccc1)C(=O)N[C@H](C(=O)N[C@@H](CC(N)=O)C(=O)N[C@@H](Cc1c[nH]c2ccccc12)C(=O)N[C@@H](CC(C)C)C(=O)N[C@@H](CC(C)C)C(=O)N[C@@H](C)C(=O)N[C@@H](CCC(N)=O)C(=O)N[C@@H](CCCCN)C(N)=O)C(C)C)[C@@H](C)CC [AT180, [hGIP(5-30)NH2[Q20K]-C16diacid/20]] (H-TFISDYSIAMDKIHQK(C16 diacid)DFVNWLLAQK-NH2; N-terminus assumed) | 1.7 | 37 | 0 |  | 3.7 | 6.4 |  |  |  |  |  |  |  |  |  |  |
| CCCCCCCCCCCCCCCCCC(=O)NCCCC[C@H](NC(=O)[C@@H](NC(=O)[C@H](CCCCN)NC(=O)[C@H](CC(=O)O)NC(=O)[C@H](CCSC)NC(=O)[C@H](C)NC(=O)[C@@H](NC(=O)[C@H](CO)NC(=O)[C@H](Cc1ccc(O)cc1)NC(=O)[C@H](CC(=O)O)NC(=O)[C@H](CO)NC(=O)[C@@H](NC(=O)[C@H](Cc1ccccc1)NC(=O)[C@@H](NC(=O)CNC(=O)[C@@H](N)CCC(=O)O)[C@@H](C)O)[C@@H](C)CC)[C@@H](C)CC)[C@@H](C)CC)C(=O)N[C@@H](CCC(N)=O)C(=O)N[C@@H](CCC(N)=O)C(=O)N[C@@H](CC(=O)O)C(=O)N[C@@H](Cc1ccccc1)C(=O)N[C@H](C(=O)N[C@@H](CC(N)=O)C(=O)N[C@@H](Cc1c[nH]c2ccccc12)C(=O)N[C@@H](CC(C)C)C(=O)N[C@@H](CC(C)C)C(=O)N[C@@H](C)C(=O)N[C@@H](CCC(N)=O)C(=O)N[C@@H](CCCCN)C(N)=O)C(C)C [AT160, [hGIP(3-30)NH2[H18K]-C18/18]] (H-EGTFISDYSIAMDKIK(Stearoyl)QQDFVNWLLAQK-NH2; N-terminus assumed) |  | 38 | 13 |  |  |  | 49 |  | 962 | 3.6 |  | 0.7 | 48.8 | 48.8 | 6 |  |
| CC[C@H](C)[C@H](NC(=O)[C@H](CO)NC(=O)[C@H](Cc1ccc(O)cc1)NC(=O)[C@H](CC(=O)O)NC(=O)[C@H](CO)NC(=O)[C@@H](NC(=O)[C@H](Cc1ccccc1)NC(=O)[C@@H](N)[C@@H](C)O)[C@@H](C)CC)C(=O)N[C@@H](C)C(=O)N[C@@H](CCSC)C(=O)N[C@@H](CC(=O)O)C(=O)N[C@@H](CCCCN)C(=O)N[C@H](C(=O)N[C@@H](Cc1c[nH]cn1)C(=O)N[C@@H](CCC(N)=O)C(=O)N[C@@H](CCC(N)=O)C(=O)N[C@@H](CC(=O)O)C(=O)N[C@@H](CCCCNC(=O)CCCCCCCCCCCCCCC(=O)O)C(=O)N[C@H](C(=O)N[C@@H](CC(N)=O)C(=O)N[C@@H](Cc1c[nH]c2ccccc12)C(=O)N[C@@H](CC(C)C)C(=O)N[C@@H](CC(C)C)C(=O)N[C@@H](C)C(=O)N[C@@H](CCC(N)=O)C(=O)N[C@@H](CCCCN)C(N)=O)C(C)C)[C@@H](C)CC [AT182, [hGIP(5-30)NH2[F22K]-C16diacid/22]] (H-TFISDYSIAMDKIHQQDK(C16 diacid)VNWLLAQK-NH2; N-terminus assumed) | 21.9 | 634 | 13 | 1000 nM | 3.0 | 1.4 | 962 |  |  |  |  |  |  |  |  | 603 |
